Laboratory results from publication PMC4623321 (Clinical genitourinary cancer, 2013).
Marks after values point to notes of the source that are not given here.

Tests used:
[1] = tested on: S6 ribosomal protein phosphorylation (Ser235/236) in PBMCs; experiment: PBMC phospho/total S6RP analysis; format: in vivo, human; conditions: PBMCs of patients, baseline to 1 month of treatment (with vatalanib)
[2] = tested on: patients with advanced solid tumors; conditions: oral
[3] = Pharmacokinetic assessments in patient plasma; format: in vivo, human
solid tumors = conditions: cited from earlier work
[4] = everolimus with vatalanib, day 29, mean ± SD
[5] = vatalanib after everolimus started, day 29, mean ± SD
[6] = vatalanib alone, day 14, mean ± SD

SMILES: CO[C@H]1C[C@@H]2CC[C@@H](C)[C@@](O)(O2)C(=O)C(=O)N2CCCC[C@H]2C(=O)O[C@H]([C@H](C)C[C@@H]2CC[C@@H](OCCO)[C@H](OC)C2)CC(=O)[C@H](C)/C=C(\C)[C@@H](O)[C@@H](OC)C(=O)[C@H](C)C[C@H](C)/C=C/C=C/C=C/1C [Everolimus]
- Mean change in phospho/total ratio of S6RP [1]: no mean change
- Maximum tolerated dose (MTD) of everolimus in the combination ([2]; combined with vatalanib 1000 mg daily): 5 mg daily
- CLss/F [3, 4]: 14.3 ± 3.7 L/h
- Cssavg [3, 4]: 15.7 ± 4.9 ng/mL
- Cssmax [3, 4]: 48.5 ± 14.8 ng/mL
- Time of peak of mean plasma concentration ([3]; everolimus, cycle 1 day 29, mean concentration-time curve (Fig. 3B)): 2 h
- Vd/F ([3]; human, plasma, oral): 216 ± 74 L
- AUC ([3]; human, plasma, oral, everolimus with vatalanib, day 29, 24-hour dosing interval, mean ± SD): 377 ± 117 ng·h/mL
- half-life ([3]; human, plasma, oral, t1/2, everolimus with vatalanib, day 29, mean ± SD): 14 ± 2.5 h
- Tmax ([3]; human, plasma, oral, tmax, everolimus with vatalanib, day 29, median (range)): 1.31 h

SMILES: Clc1ccc(Nc2nnc(Cc3ccncc3)c3ccccc23)cc1 [Vatalanib]
- Daily dose with radiographic evidence of a decrease in tumor blood flow (solid tumors; several clinical trials): ≥ 1000 mg
- Tolerable dosing (solid tumors; single agent, clinical trials): ≤ 2000 mg daily
- Maximum tolerated dose (MTD) of vatalanib in the combination ([2]; combined with everolimus 5 mg daily): 1000 mg daily
- Effect of adding everolimus on systemic exposure of vatalanib (AUC) ([3]; day 14 vs day 29): not significantly affected
- Effect of everolimus on the PK parameters of vatalanib (maximum or steady-state plasma concentrations) ([3]; day 14 vs day 29): no substantial effect
- Vd/F ([3]; human, plasma, oral): 488 ± 481 L
- AUC ([3]; human, plasma, oral, vatalanib after everolimus started, day 29, 24-hour dosing interval, mean ± SD): 21600 ng·h/mL
- AUC ([3]; human, plasma, oral, vatalanib alone, day 14, 24-hour dosing interval, mean ± SD): 26400 ng·h/mL
- half-life ([3]; human, plasma, oral, t1/2, vatalanib after everolimus started, day 29, mean ± SD): 5.7 h
- half-life ([3]; human, plasma, oral, t1/2, vatalanib alone, day 14, steady state, plasma, mean ± SD): 6.3 h
- Tmax ([3]; human, plasma, oral, tmax, vatalanib after everolimus started, day 29, median (range)): 2 h
- Tmax ([3]; human, plasma, oral, tmax, vatalanib alone, day 14, median (range)): 2 h
- Cssavg [3, 5]: 901 ± 403 ng/mL
- Cssmax [3, 5]: 3963 ± 1861 ng/mL
- t1/2 [3, 5]: 5.71 ± 3.06 h
- Tmax ([3]; vatalanib after everolimus started, day 29, median (range)): 2.08 (1.00-4.08) ^a h
- Cssavg [3, 6]: 1099 ± 551 ng/mL
- Cssmax [3, 6]: 4825 ± 2910 ng/mL
- t1/2 ([3]; vatalanib alone, day 14, steady state, plasma, mean ± SD): 6.32 ± 4.46 h
